Earlier results in patent EP0527942B1, “COLONIC DRUG DELIVERY SYSTEM” (Perio Products Limited, priority 1990, dated 1991).

Test system: morphine-dependent rats
Conditions: for time to diarrhea, withdrawal behavior and tail skin temperature response: oral administration

Row | Molecule | time to diarrhea, withdrawal behavior and tail skin temperature response [min] | time to diarrhea (direct colonic administration) [min] | activity when administered subcutaneously (subcutaneous administration)
1 | C=C1CC[C@@]2(O)[C@H]3Cc4ccc(O)c5c4[C@@]2(CCN3CC2CC2)[C@H]1O5 [nalmefene] | ≤ 15 | – | –
2 | C=CCN1CC[C@]23c4c5ccc(O)c4O[C@H]2C(=O)CC[C@@]3(O)[C@H]1C5 [naloxone] | ≤ 15 | – | –
3 | nalmefene glucuronide | – | 5 to 8 | inactive
